Test results from patent US9492466B2, “Beta-hydroxy-gamma-aminophosphonates for treating immune disorders” (Nucitec S.A. de C.V., priority 2012, dated 2016).

Assays:
blood T-lymphocytes = assay: T cell levels in blood of obese rats, 5 weeks of treatment; format: in vivo, obese (fa/fa) Zucker rats; settings: obese Zucker rats, 100 mg/kg
Description: Compound 2 (100 mg/kg) was administered to obese (fa/fa) Zucker rats five days a week for 5 weeks. […] The level of T helper (CD4+) increased; cytotoxic T-lymphocyte(CD8+) levels remained unchanged.
The effect of Compound 2 on T lymphocyte populations in normal and unhealthy rats was investigated. Obese (fa/fa) Zucker rats (ZDF) and lean Wistar rats, as control, were used. Zucker rats present a mutation in the leptin receptor, which is the molecular basis of their characteristic phenotype (loss of satiety). Obese Zucker rats are considered representative of obesity-associated type diabetes in humans. They are hyperlipidaemic, grossly obese, hyperinsulinaemic, insulin resistant, and not prone to ketosis. Metabolic changes related to increased insulin resistance, including oxidative stress, have been implicated in obesity-related pathophysiology. However, most attention in recent years has been devoted to the concept that obesity elicits a chronic low-grade systemic inflammatory state.
In this study, animals were treated with 100 mg/kg of Compound 2 five days a week for 5 weeks. The circulating lymphocyte populations were identified and quantified by flow cytometry using mice monoclonal antibodies against rat CD3+ conjugated with different fluorochromes and analyzed on a FACS Calibur flow cytometer BD using the Cell Quest software.

blood lymphocytes = assay: T cell levels in normal rats (flow cytometry of circulating lymphocytes); format: in vivo; settings: Wistar rats, 22.4 mg/kg
Description: The ability of (2R,3S)-(2-hydroxy-5-methyl-3-trimethylammonium-hexyl)-phosphonic acid; iodide (referred to herein as “Compound 1”) to modify the level of blood lymphocytes in rats was investigated. (2R,3S)-(2-hydroxy-5-methyl-3-trimethylammonium-hexyl)-phosphonic acid; iodide (22.4 mg/kg) was administered to Wistar rats 5 days a week for two weeks. The circulating lymphocyte populations were identified and quantified by flow cytometry mice monoclonal antibodies against rat CD3+ conjugated with different fluorochromes and analyzed on a FACS Calibur flow cytometer BD using the Cell Quest software. […] It is noted that administration of Compound 1 increases the levels of T helper (CD4+) and cytotoxic (CD8+) lymphocytes. In addition, an increase in regulatory T cells (CD4+CD25+) (p<0.01) was observed.

ALT, AST and AP in serum = assay: Level of liver enzymes (colorimetric); format: in vivo, obese (fa/fa) Zucker rats (ZDF); settings: obese Zucker rats, 100 mg/kg, p<0.01
Description: To determine whether the morphological changes in liver tissue (see EXAMPLE 6) were associated with an improvement in liver function, the levels of liver enzymes were investigated. Obese (fa/fa) Zucker rats (ZDF) and lean rats, as control, were used. Obese (fa/fa) Zucker rats (ZDF) were treated with a daily dose of Compound 2 (100 mg/kg) 5 days a week during eight weeks.
Plasma from blood samples was collected and liver enzymes were quantified by colorimetric methods. Liver enzymes, or liver (hepatic) function tests, are used to determine if the liver is functioning normally, or if it has an injury or disease. Alanine aminotransferase (ALT) is typically used to detect a liver injury or an active or chronic liver problem. Aspartate aminotransferase (AST) is used to detect liver injuries and long-term liver disease. Highly elevated levels of AST may indicate active hepatitis from any cause. Alkaline phosphatase (ALP) is an enzyme found in the bile ducts of the liver. Damage or obstruction of the bile ducts may result in elevated levels of ALP.

THP-1 cells [1] = assay: Phagocytic activity of THP-1 cells (yeast phagocytosis, flow cytometry); format: cell-based, human
Description: The ability of (2R,3S)-(2-hydroxy-5-methyl-3-trimethylammonium-hexyl)-phosphonic acid dimethyl ester; iodide to induce the phagocytic activity of monocytic cells (THP-1 cells) was investigated. For this, THP-1 cells were differentiated using phorbol myristate 13-acetate (PMA, 100 ng/mL) in order to induce the phagocytic activity of yeast. When the cells were treated with PMA (100 ng/mL) for 48 hours cell differentiation of monocytic cells to macrophages was observed (FIG. 14). Yeast were added to cultured media and the phagocytosis was measured by flow cytometry (FIG. 15). (2R,3S)-(2-hydroxy-5-methyl-3-trimethylammonium-hexyl)-phosphonic acid dimethyl ester; iodide induced the phagocytosis of yeast by macrophages in a similar way that those macrophages treated with PMA alone.

Nocardia brasiliensis = assay: Reduction in mycetoma development induced in mice; format: in vivo; settings: Balb-c mice, dexamethasone, 5 mg/kg and 50 mg/kg, after 15 days of treatment
Description: The ability of (2R,3S)-(2-hydroxy-5-methyl-3-trimethylammonium-hexyl)-phosphonic acid dimethyl ester; iodide at 5 mg/kg and 50 mg/kg to reduce the mycetoma development induced in mice was investigated. For this, male Balb-c mice weighing 25 grams were used. Mice were treated with dexamethasone (125 mg/kg) and mycetoma was induced with the inoculation Nocardia brasiliensis (15×10^8 cells, se) (FIG. 16).
Mycetoma is a chronic infectious disease that remains localized, involves cutaneous and subcutaneous tissue, fascia, and bone, and is noncontagious. The disease is characterized by tumefaction, draining sinuses, and the presence of sclerotia. The 31 fungi known to cause mycetoma are associated with soil and woody plants. A chronic, tumor-like deforming disease develops during subsequent years following the introduction of the etiologic agent via localized trauma.

[2] = test system: liver injury present in obese (fa/fa) Zucker rats (ZDF); assay: Histological studies of liver tissue; format: in vivo; settings: 100 mg/kg
Description: The ability of Compound 2 (100 mg/kg) to modify the liver injury present in obese (fa/fa) Zucker rats (ZDF) was investigated. Obese (fa/fa) Zucker rats (ZDF) and lean rats, as control, were used. Obese (fa/fa) Zucker rats (ZDF) were treated with a daily dose of 100 mg/kg of the Compound 2, 5 days a week during eight weeks.
Samples of tissue from liver were taken, and histological sections were made and stained with hematoxylin and eosin from obese (fa/fa) Zucker rats and lean rats.

THP-1 cells [3] = assay: Cell proliferation of THP-1 cells co-stimulated with lipopolysaccharide; format: cell-based, human
Description: The ability of (2R,3S)-(2-hydroxy-5-methyl-3-trimethylammonium-hexyl)-phosphonic acid dimethyl ester iodide to modify the cell proliferation of monocytic cells (THP-1 cells) co-stimulated with lipopolysaccharide was investigated. THP-1 cells, a human monocytic cell line, were used and cultured in RPMI 1640 medium supplemented with 10% FBS and 100 U/ml penicillin-streptomycin. Cell cultures were incubated at 37° C. and 5% CO2. THP-1 cells were plated at 1×10^6 cells/ml in 24-well microtiter plates. Cells were co-stimulated with lipopolysaccharide (LPS, 10 μg/mL) in order to induce cell proliferation. Cells were treated with the compound at different concentrations, and a reduction in the number of cells at 0.01, 10 and 100 μM at 24 hours of treatment were observed (FIG. 12).

THP-1 cells [4] = assay: Cell proliferation of THP-1 cells co-inhibited with hydrocortisone; format: cell-based, human; settings: hydrocortisone 10 μg/mL, all used concentrations, 48 hours of treatment
Description: The ability of (2R,3S)-(2-hydroxy-5-methyl-3-trimethylammonium-hexyl)-phosphonic acid dimethyl ester; iodide to modify the cell proliferation of THP-1 cells was investigated. THP-1 cells were cultured in RPMI 1640 medium supplemented with 10% FBS and 100 U/ml penicillin-streptomycin. Cell cultures were incubated at 37° C. and 5% CO2. THP-1 cells were plated at 1×10^6 cells/ml in 24-well microtiter plates. Cells were co-inhibited with hydrocortisone (10 μg/mL) to inhibit cell proliferation.

[5] = Level of glucose, triglycerides, cholesterol and liver glycogen; format: in vivo, obese (fa/fa) Zucker rats (ZDF); settings: 100 mg/kg, eight weeks
Description: To determine whether the morphological and functional changes (see EXAMPLES 6 and 7) were associated with an improvement in liver metabolism, the levels of glucose, triglycerides and cholesterol were quantified. Obese (fa/fa) Zucker rats (ZDF) and lean rats, as control, were used. Obese (fa/fa) Zucker rats (ZDF) were treated with a daily dose of Compound 2 (100 mg/kg) 5 days a week during eight weeks. Plasma from blood samples was collected, and the triglycerides, cholesterol and glucose levels were quantified by colorimetric methods. Also, liver samples were taken, and liver glycogen was measured.

thymus and spleen = assay: Histological studies of thymus and spleen tissue; format: in vivo, obese (fa/fa) Zucker rats; settings: obese Zucker rats, hematoxylin and eosin
Description: Samples of tissue from thymus (FIG. 6) and spleen (FIG. 7) were taken and histological sections were made and stained with hematoxylin and eosin from obese (fa/fa) Zucker rats and lean rats. The histological sections from thymus show a decrease in thymic medulla in samples from obese animals. When animals were treated with Compound 2 for five weeks, a recovery of the cellularity of medulla in this lymphoid organ was observed.

[6] = test system: T lymphocyte subpopulations; assay: T lymphocyte subpopulations in bloodstream, thymus and spleen, 8 weeks of treatment; format: in vivo, obese (fa/fa) Zucker rats (ZDF); settings: 100 mg/kg
From the text: To determine whether the increase in lymphocytes is due to an increased production of lymphocytes or their mobility, the levels of T lymphocyte subpopulations in bloodstream, thymus, and spleen from obese (fa/fa) Zucker rats (ZDF) and lean rats (control), after 8 weeks of treatment with Compound 2 was investigated.
Obese rats were used in this study. Lymphocyte populations from bloodstream, thymus, and spleen were identified and quantified by flow cytometry using mice monoclonal antibodies against rat CD3+ conjugated with different fluorochromes and analyzed on a FACS Calibur flow cytometer BD using the Cell Quest software.

CD4+ counts = settings: HIV-infected patients, in combination with standard antiretroviral treatment, vs antiretroviral agents with no supplementation; cited from earlier work

Molecule: (2R,3S)-(2-hydroxy-5-methyl-3-trimethylammonium-hexyl)-phosphonic acid; iodide [Compound 1]
- level of total blood T-lymphocytes (blood T-lymphocytes; five days a week for 5 weeks, vs control group): increased
- level of total T-lymphocytes (blood lymphocytes; 5 days a week for two weeks, vs control group): increased
- levels of T helper (CD4+) lymphocytes (blood lymphocytes; two weeks): increases
- levels of cytotoxic (CD8+) lymphocytes (blood lymphocytes; two weeks): increases
- regulatory T cells (CD4+CD25+) (blood lymphocytes; two weeks, p<0.01): increase

Molecule: COP(=O)(C[C@H](O)[C@H](CC(C)C)[N+](C)(C)C)OC [Compound 2, (2R,3S)-(2-hydroxy-5-methyl-3-trimethylammonium-hexyl)-phosphonic acid dimethyl ester; iodide]
- level of ALT in serum (ALT, AST and AP in serum; 5 days a week during eight weeks): significant reduction
- level of AP in serum (ALT, AST and AP in serum; eight weeks): significant reduction
- level of AST in serum (ALT, AST and AP in serum; eight weeks): significant reduction
- cytotoxic T-lymphocyte (CD8+) levels (blood T-lymphocytes; 5 weeks, blood): unchanged
- level of T helper (CD4+) (blood T-lymphocytes; 5 weeks, blood): increased
- T cell populations (blood T-lymphocytes; 5 weeks, similar to healthy Wistar rats, although in minor intensity): increase
- phagocytosis of yeast by macrophages (THP-1 cells [1]; PMA-differentiated THP-1 cells, similar to macrophages treated with PMA alone): induced
- paw thickness (mycetoma) (Nocardia brasiliensis): significant reduction
- liver histology ([2]; eight weeks, hematoxylin and eosin): normal liver histology
- degree of fat accumulation in the liver ([2]; five days a week for eight weeks): significant reduction
- effect of LPS (THP-1 cells [3]; THP-1 cells co-stimulated with LPS 10 μg/mL): inhibit
- number of cells (cell proliferation) (THP-1 cells [3]; THP-1 cells, LPS 10 μg/mL, at 0.01, 10 and 100 μM, 24 hours of treatment): reduction
- cell proliferation (THP-1 cells [4]): induction
- amount of glycogen in the liver ([5]; Zucker rats): higher
- cholesterol compared with control (lean) levels ([5]; obese Zucker rats): reached the control levels
- glucose compared with control (lean) levels ([5]; obese Zucker rats): reached the control levels
- cholesterol levels ([5]; obese Zucker rats, p<0.01): significant reduction
- glucose levels ([5]; obese Zucker rats, p<0.01): significant reduction
- triglycerides levels ([5]; obese Zucker rats, p<0.01): significant reduction
- spleen morphology (white pulp, lymphoid follicles) (thymus and spleen): recovery
- cellularity of medulla in thymus (histology) (thymus and spleen; treated for five weeks): recovery
- cytotoxic lymphocytes ([6]; obese rats, blood): significant increase
- levels of total blood lymphocytes ([6]; obese rats, blood): increased
- subpopulation of T helper cells ([6]; spleen): reduction
- subpopulation of cytotoxic lymphocytes ([6]; spleen): reduction
- total T-lymphocytes ([6]; spleen): decline
- cytotoxic T-lymphocytes ([6]; thymus): increase
- double positive CD8+ CD4+ (DP) lymphocytes ([6]; thymus): slight decrease
- population of double negative CD4-CD8- (DN) lymphocytes ([6]; thymus): slight increase
- population of helper T cells ([6]; thymus): increase

Molecule: CCCCCCCCCCCCCC(=O)O[C@@H]1[C@@H](C)[C@@]2(O)[C@@H](C=C(CO)C[C@]3(O)C(=O)C(C)=C[C@@H]23)[C@@H]2C(C)(C)[C@]12OC(C)=O [PMA, phorbol myristate 13-acetate, reference compound]
- cell differentiation of monocytic cells to macrophages (THP-1 cells [1]; THP-1 cells, 100 ng/mL, 48 hours): observed

Molecule: C[N+](C)(C)C[C@H](O)CC(=O)[O-] [L-carnitine]
- improvement in CD4+ counts (CD4+ counts): greater improvement
